Read-outs that look alike come from different tables or passages of the source.
Key:
[1] = tested on: human mammary tumoral lineage T-47D; assay: Clonogenic test (soft agar), growth of cellular colonies; assay type: cell-based; settings: for activity at 0.1 µM / activity at 0.01 µM / activity at 0.001 µM / activity at 0.0001 µM: 504 h, read-out: mean number of cellular colonies in relation to control; for effect on growth of cellular colonies (in words): soft agar
Outline: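 T-47D cells of over 90% viability were seeded in 0.3% agar over a 0.5% agar base and kept at 37 °C with 5% CO2 for 21 days after treatment. After staining with MTT (1 mg/ml, at least 3 h), colonies larger than 100 μm² were counted microscopically and expressed as a percentage of control.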

RARβ-ERcassette = assay: Transactivation, chimerical receptor RARβ-ERcassette (HeLa); assay type: cell-based; settings: TTNPB 10^-8 M = 100
Outline: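 Read-out: ERE-driven luciferase in HeLa cells, normalised to a co-transfected CMV-β-galactosidase control. Receptor is RAR with its C domain swapped for the oestrogen receptor DNA-binding domain, keeping AF-1/AF-2 cooperation. Effector exposure 16 h, beginning 24 h post-transfection.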

RARγ-ERcassette = assay: Transactivation, chimerical receptor RARγ-ERcassette (HeLa); assay type: cell-based; settings: TTNPB 10^-8 M = 100
Excerpt: The HeLa cells are co-transfected by a plasmid which codes for a retinoic receptor in which the C domain of bonding to the DNA is substituted by that of the receptor to RE oestrogens, and a plasmid which places the expression of the luciferase under the control of an ERE (Element of Response to Oestrogens). The expressed chimerical receptors are designated as RARα-ERcassette, RARβ-ERcassette, RARγ-ERcassette and RXRα-ERcassette. The A, B, D, E and F regions of the natural receptor are preserved as well as the transcriptional co-operation between the activation domains AF-1 and AF-2. These transitory transfection experiments follow the method of co-precipitation to calcium phosphate. The HeLa cells are co-transfected by […] of plasmid coding for the chimerical receptor, […] of reporter plasmid and […] of expression vector CMV-β-galactosidase used as an internal control of transfection. 24 hours after the transfection, the cells are incubated for 16 hours with the different effectors.
In this type of chimerical receptor, the C domain of bonding to the DNA of RAR is substituted by that of the receptor to the RE oestrogens. The protein obtained is close to the natural RAR receptor and preserves the transcriptional properties of the AF-1 and AF-2 domains. It modulates the transcription by means of an ERE. This RAR-ERcassette model allows one to observe a transcriptional response to a more physiological ligand.

[2] = tested on: response element RARE of RARβ gene, endogenic retinoic receptors, HRLN lineage; assay: HRLN transactivation (RARE-luciferase, stably transfected HeLa); assay type: cell-based; settings: for Emax / EC50: Homo sapiens, HeLa; for Emax: read-out: HRLN transactivation, E max; for EC50: concentrations from 1 nM to 1 μM
Protocol: MCF-7 cells and HeLa are cultivated in DMFM with phenol red to which 5% foetal calf serum is added. The T47-D cells are cultivated in RPMI to which 10% foetal calf serum is added. The experimental tests are carried out in DMEM without phenol red to which foetal calf serum treated with dextran carbon is added at 3%. […] The experiments using the different retinoids are carried out sheltered from the light so as to avoid any isomerisation.
Certain properties of the retinoids have been determined using more developed cellular models. These models consist of cellular lineages transfected in a stable fashion by recombinant plasmids which place the expression of the gene of the luciferase under the control of different nuclear response elements. […] The tests carried out in duplicate are described below for each of these models.
The cellular lineages HRLN and HRL+N allow one to study the activation of an RARE by endogenic receptors using ligands at physiological concentrations. These lineages derive from HeLa cells transfected in a stable fashion by a reporter gene which places the expression of the gene of the luciferase under the control of a nuclear response element RARE (RARE3 -tk-Luc). The HeLa cells express all the known receptors of the retinoic acid (RARα,β,γ and RXRα,β,γ) with a predominance of RARα and RXRα. The response element RARE used for the HRLN cells corresponds to the sequence of the natural gene of the RARβ receptor (GGTTCAnnnnnAGTTCA). The HRL+N cells comprise the sequence GAGTGAnnnnnCGGTGA.
This lineage comprises the response element RARE of the natural gene of the RARβ receptor which controls the expression of the gene of the luciferase.

[3] = tested on: A-427 human pulmonary cancer cells; assay: MTT test, proliferation of A-427; settings: for activity at 100 µM / activity at 1 µM / activity at 0.01 µM: Homo sapiens, A-427, 72 h, read-out: level of proliferation; for effect on cellular increase, A-427 (in words): MTT test
[4] = tested on: Gal4-RAR (RARα, RARβ, RARγ); assay: Chimerical receptors Gal4-RAR, overall profile; assay type: cell-based
[5] = Homo sapiens, T47D, T-47D, 10^-7 M, 21 days, control = 100%
[6] = Homo sapiens, T47D, T-47D, 10^-8 M, 21 days, control = 100%
[7] = Homo sapiens, T47D, T-47D, 10^-9 M, 21 days, control = 100%
[8] = Homo sapiens, T47D, T-47D, 10^-10 M, 21 days, control = 100%

SMILES | activity at 0.1 µM [1, 5] | activity at 0.01 µM [1, 6] | activity at 0.001 µM [1, 7] | activity at 0.0001 µM [1, 8] | effect on growth of cellular colonies (in words) ([1]; T-47D) | RAR-ERcassette RARβ transactivation (RARβ-ERcassette; 10^-6 M) | RAR-ERcassette RARβ transactivation (RARβ-ERcassette; 10^-7 M) | RAR-ERcassette RARβ transactivation (RARβ-ERcassette; 10^-8 M) | RAR-ERcassette RARγ transactivation (RARγ-ERcassette; 10^-6 M) | RAR-ERcassette RARγ transactivation (RARγ-ERcassette; 10^-7 M) | RAR-ERcassette RARγ transactivation (RARγ-ERcassette; 10^-8 M) | RAR-ERcassette RARγ transactivation (RARγ-ERcassette; 10^-9 M) | HRLN transactivation (in words) [2] | activity at 100 µM [3] | Gal-RAR agonist profile (in words) [4] | activity at 1 µM [3] | Emax [2] | activity at 0.01 µM [3] | effect on cellular increase, A-427 (in words) [3] | also measured
CC(C=C/C=C(C)\C=C\C1=C(C)CCCC1(C)C)=CC(=O)O [CB13407, 9-cis retinoic acid, reference compound] | 6.7% | 45.6% | 52.8% | 54.9% | significant and dose dependent inhibiting activity | 369% | 212% | 94% | 157% | 108% | 56% | 11% | induce a dose-dependent activation | 5.9% |  |  |  |  |  | RAR-ERcassette RARβ transactivation (RARβ-ERcassette; 10^-9 M): 16%
CC1=C(/C=C/C(C)=C/C=C/C(C)=C/C(=O)O)C(C)(C)CCC1 [CB16178, all-trans retinoic acid, reference compound] |  |  |  |  |  | 475% | 270% | 128% | 189% | 122% | 114% | 86% | induce a dose-dependent activation | 1.5% | good RAR agonists | 68.2% |  |  |  | RAR-ERcassette RARβ transactivation (RARβ-ERcassette; 10^-9 M): 93%
C/C(=C/c1ccc2c(c1)C(C)(C)CCC2(C)C)c1ccc(C(=O)O)nc1 [CB16279, (Z) 5-[1-(5,6,7,8-tetrahydro-5,5,8,8-tetramethyl-2-naphthalenyl)-2-propenyl]pyridinyl-2-carboxylic acid] | 102 ± 3.4% |  | 110 ± 1.5% |  | does not induce any significant modification in the growth of the cellular colonies | 118% | 60% |  | 71% | 15% |  |  | induce a transactivation close to that of TTNPB |  | partial agonists at 1 μM for the three RAR receptors |  |  |  |  | 
C/C(=C/c1ccc2c(c1)C(C)(C)CCC2(C)C)c1ccc(C(=O)O)cc1 [CB28628, reference compound] | 21.4% | 97.6% | 89.2% |  | strongly and significantly inhibits the growth of the cellular colonies at the concentration of 10^-7 M but very rapidly loses its activity beyond the concentration of 10^-8 M | 183% | 115% | 88% | 92% | 87% | 55% |  |  | 2.5% | completely agonistic for the three types of RAR receptors | 86.8% | 98% | 86.7% |  | 
C/C(=C\c1cc2c(cc1C)C(C)(C)CCC2(C)C)c1ccc(C(=O)O)cc1 [CB71802] |  | 45.2 ± 4.8% | 92.5 ± 9.6% | 104 ± 2.3% |  |  |  |  |  |  |  |  |  | 1% |  | 65.6% | 76% | 69.7% | inhibits the increase of these two pulmonary lineages the most strongly | EC50 [2]: 0.0314 ± 0.0169 µM
C/C(=C\c1ccc2c(c1)C(C)(C)CCC2(C)C)c1ccc(C(=O)Nc2nnn[nH]2)cc1 [CB73364] |  | 10.3 ± 2.8% | 54.9 ± 5.8% | 99.3 ± 7.8% | inhibit the growth of the cellular colonies | 118% |  |  | 78% |  |  |  |  | 0.1% |  | 87.2% | 89% | 92.7% |  | inhibition at 0.01 µM ([1]; Homo sapiens, T47D, T-47D, 10^-8 M, read-out: inhibition of colony growth): 69.7%; EC50 [2]: 0.033 µM
CC1(C)CCC(C)(C)c2cc(/C=C(\c3ccc(-c4nnn[nH]4)cc3)C(F)(F)F)ccc21 [CB77402, (E) 5-[4-[1-trifluoromethyl-2-(5,6,7,8-tetrahydro-5,5,8,8-tetramethyl-2-naphthalenyl)-1-ethenyl]phenyl]-1H-tetrazole] |  |  |  |  |  | 37% | 31% | 0% | 8% | 0% | 0% |  | very feebly active | 0.2% | not RAR agonists | 77.6% | 18% | 82.3% | show activity on the increase of these two lineages | 
Cc1cc2c(cc1C(=O)c1ccc(C(=O)O)cc1)C(C)(C)CCC2(C)C [LGD-CB14499, reference compound] |  |  |  |  |  | 130% | 58% | 10% | 66% | 31% | 13% |  |  |  |  |  |  |  |  | 
C/C(=C\c1ccc(C(=O)O)cc1)c1ccc2c(c1)C(C)(C)CCC2(C)C [TTNPB, reference compound] |  |  |  |  | more active than the product CB36493 of the cis series (Z) |  |  |  |  |  |  | 66% |  | 3.6% | good RAR agonists | 78.5% |  | 78.9% | inhibits the A-427 lineage at 10^-6 M and 10^-8 M | activity at 0.0001 µM ([1]; Homo sapiens, T47D): 34.1%; activity at 0.001 µM ([1]; Homo sapiens, T47D): 5.5%; activity at 0.01 µM ([1]; Homo sapiens, T47D): 2.1%; activity at 0.1 µM ([1]; Homo sapiens, T47D): 1.3%; inhibition at 0.0001 µM ([1]; Homo sapiens, T47D, read-out: inhibition of colony growth): 66%; effect on growth of cellular colonies (in words) ([1]; T-47D, listed as CB01570): inhibits very strongly, in a significant and dose dependent manner the growth of cellular colonies

— patent US6265423A, “Aromatic polycyclic retinoid-type derivatives, method for preparing same, and use thereof for making pharmaceutical and cosmetic compositions” (priority 1996, dated 2001)
